In ChEMBL document CHEMBL4312036, “Antiproliferative activity and mode of action analysis of novel amino and amido substituted phenantrene and naphtho[2,1-b]thiophene derivatives” (Eur J Med Chem, 2020):
Calls of active or inactive are those of the source. No cut-off for these calls is given here.

Legend:
CFPAC-1 = assay: Antiproliferative activity against human CFPAC-1 cells incubated for 72 hrs by MTT assay; type: functional, cell-based; conditions: CFPAC-1, 72 h
HepG2 [1] = assay: cells; conditions: Homo sapiens, HepG2, 72 h
Description: Antiproliferative activity against human HepG2 cells incubated for 72 hrs by MTT assay

A549 = assay: Antiproliferative activity against human A549 cells incubated for 72 hrs by MTT assay; type: functional, cell-based; conditions: A549, 72 h
SW-620 = assay: Antiproliferative activity against human SW620 cells incubated for 72 hrs by MTT assay; type: functional, cell-based; conditions: SW-620, 72 h
HFF = assay: Cytotoxicity against HFF cells assessed as reduction in cell viability incubated for 72 hrs by MTT assay; type: cell-based; conditions: Homo sapiens
HeLa [2] = assay: cells; conditions: Homo sapiens, 72 h
Description: Antiproliferative activity against human HeLa cells incubated for 72 hrs by MTT assay

HepG2 [3] = assay: Upregulation of HIF1 protein level in human HepG2 cells at 2 times IC50 incubated for 72 hrs by Western blot analysis; type: functional, cell-based
HeLa [4] = assay: Downregulation of MEK1/2 protein level in human HeLa cells at 2 times IC50 incubated for 72 hrs by Western blot analysis; type: functional, cell-based
HeLa [5] = assay: Upregulation of HIF1 protein level in human HeLa cells at 2 times IC50 incubated for 72 hrs by Western blot analysis; type: functional, cell-based
HeLa [6] = assay: Upregulation of HIF1 protein level in human HeLa cells at 2 times IC50 incubated for 48 hrs by Western blot analysis; type: functional, cell-based
HepG2 [7] = assay: Downregulation of MEK1/2 protein level in human HepG2 cells at 2 times IC50 incubated for 72 hrs by Western blot analysis; type: functional, cell-based
HeLa [8] = assay: Downregulation of MEK1/2 protein level in human HeLa cells at 2 times IC50 incubated for 48 hrs by Western blot analysis; type: functional, cell-based

Structure (SMILES)	IC50 (CFPAC-1) [µM]	IC50 (HepG2 [1]) [µM]	IC50 (A549) [µM]	IC50 (SW-620) [µM]	IC50 (HFF) [µM]	IC50 (HeLa [2]) [µM]	Activity (HepG2 [3])	Activity (HeLa [4])	Activity (HeLa [5])	Activity (HeLa [6])	Activity (HepG2 [7])	Activity (HeLa [8])
N#Cc1cc2ccccc2c2ccsc12	55.6	54.3	50.4	70.3	84.6	29.9						
N#C/C(=C\c1ccccc1)c1cccs1	97.8	43.4	59	> 100	84.3	20						
CC(C)CNc1ccc2cc(C#N)c3sccc3c2c1	18.6	47.6	31	41.5	98.4	18.6						
N#Cc1cc2ccc(F)cc2c2ccccc12	13.2	18.3	9.57	7.8	3.43	8.31						
CC(C)CNC(=O)c1cc2ccccc2c2ccsc12	97.5	75.4	63.9	> 100	96.8	39.6						
N#Cc1cc2ccc(N3CCCCC3)cc2c2ccccc12	> 100	81.8	58.9	> 100	> 100	59.4						
CN(C)CCCNC(=O)c1ccc2cc(C(=O)NCCCN(C)C)c3sccc3c2c1	6.59	16.2	5.57	4.4	5.83	4.21						
N#C/C(=C\c1ccccc1)c1ccccc1	88.2	81.5	64.6	> 100	93.7	48.9						
CC(C)CNC(=O)c1ccc2cc(C(=O)NCC(C)C)c3sccc3c2c1	> 100	86.1	27.7	0.9	0.74	10.8						
N#C/C(=C\c1ccc(C#N)cc1)c1cccs1	52.4	0.3	47.7	61.4	> 100	0.21	Active	Active	Active	Active	Active	
CN(C)CCCNC(=O)c1cc2ccccc2c2ccsc12	17.5	23.2	20.2	17.7	24	14.4						
N#Cc1cc2ccc(F)cc2c2ccsc12	51	32.1	49.9	42.4	16.4	11.6						
N#C/C(=C\c1ccc(C#N)cc1)c1ccccc1	6.7	0.52	8.39	9.18	6.07	0.33	Active		Active	Active	Active	Active
N#Cc1ccc2cc(C#N)c3sccc3c2c1	8.19	7.22	5.53	6.04	5.13	0.45						
N#Cc1cc2ccc(N3CCNCC3)cc2c2ccsc12	3.66	20.9	7.09	2.58	37.5	2.38						
N#C/C(=C\c1ccc(F)cc1)c1cccs1	34.2	5.22	40.8	36.4	86.9	3.59						
CC(C)CNc1ccc2cc(C#N)c3ccccc3c2c1	35.5	33.6	31.1	43.4	52.9	23.6						
N#Cc1cc2ccc(N3CCNCC3)cc2c2ccccc12	6.19	19.4	5.49	4.62	23.8	3.33						
CC(C)CNC(=O)c1cc2ccccc2c2ccccc12	68.6	93.4	64.2	61.3	> 100	28.4						
N#Cc1cc2ccc(N3CCCCC3)cc2c2ccsc12	25.7	62	61.3	64.1	62	32.2						
N#C/C(=C\c1ccc(F)cc1)c1ccccc1	46.9	7.73	45.8	38.5	52.7	3.44						
N#Cc1ccc2cc(C#N)c3ccccc3c2c1	8.2	10.8	3.3	6.8	1.78	0.65						
N#Cc1cc2ccccc2c2ccccc12	80	48.8	72.4	> 100	> 100	30.3						
